Reference: patent US12187742B2 (XRAD Therapeutics, Inc., priority 2018, dated 2025)
Structures can show the parent of a compound that is named as a salt.

Assays:
ATM = ATM (Homo sapiens (Human), UniProt Q13315); experiment: ATM in Cell Western Assay (pKAP1 in etoposide-treated MCF-7 cells); type: cell-based
Method in brief: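 Cells received compounds in a 10-dose, 3-fold series from a 1 μM final top concentration, then 100 μM etoposide, for 1 hr at 37° C. They were then fixed with paraformaldehyde and permeabilized with 0.1% Triton X-100. After immunostaining, plates were scanned on an infrared imager.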

DNA-PK = DNA-PK (Homo sapiens (Human), UniProt P78527); experiment: DNA-PK Enzyme-Linked Immunosorbent Assay (phosphorylation of GST-p53 (1-101) peptide); type: biochemical; conditions: ELISA
Protocol: Assay of Compounds ATM and DNA-PK Inhibition
remove wash solution, turn plate upside down onto a thin paper towel and centrifuge at 1000 rpm for 1 min to absorb all wash buffer. Clean the bottom of plate with moist lint free paper. Scan plate immediately using ODYSSEY CLx (LI-COR) for the best results. DNA-PK Enzyme-Linked Immunosorbent Assay:
On day one, coat 96-well plate (ThermoFisher. Cat #: 442404) with GST-p53 (1-101) peptide (purified by Pharmaron, BCS department) by diluting 3 μg of GST-p53 each well with 0.1 M Na2CO3/NaHCO3, pH 9.6. Incubate the plate overnight at 4° C. The second day, remove coating buffer, wash 2× with PBST (1×PBS containing 0.1% Tween-20). Then add DNA-PK enzyme solution (Invitrogen, #PR9107A; the final DNA-PK concentration is 0.1 μg/mL), series dilution compounds (the final top concentration is 100 nM, 3 fold series dilution, with total 10 doses) and ATP solution (the final ATP concentration is 20 μM) to the 96-well plate. Incubate the plate at 25° C. for 1 hour. Then wash 3× with PBST (1×PBS containing 0.1% Tween-20). Block the plate with PBST+ 1% BSA at 4° C. overnight. The third day, wash 4× with PBST (1×PBS containing 0.1% Tween-20). Then add Phospho-p53 primary antibody (cell signaling Technology, #9286, Phospho-p53 (Ser15) (16G8) Mouse mAb) (1/1000) to each well. Seal with plate and incubate the plate for 1 h at 37° C. Wash 4× with PBST (1×PBS containing 0.1% Tween-20), add 100 μL of HRP-linked secondary antibody (Cell signaling Technology, #7076, Anti-mouse IgG, HRP-linked Antibody) (1/1000) to each well. Seal with tape and incubate the plate for 30 min at 37° C. Wash 4× with PBST (1×PBS containing 0.1% Tween-20), add 100 μL of TMB (Cell signaling Technology, #7004) substrate to each well. Seal with tape and incubate the plate for 10 min at 37° C. Then add 100 μL of Stop solution (Cell signaling Technology, #7002) to each well. Read the plate at 450 nm to detect absorption.

[1] = MCF-7 cells, etoposide 100 μM, 1 hr, pKAP1 readout

Sequence of ATM (Q13315 whole entry): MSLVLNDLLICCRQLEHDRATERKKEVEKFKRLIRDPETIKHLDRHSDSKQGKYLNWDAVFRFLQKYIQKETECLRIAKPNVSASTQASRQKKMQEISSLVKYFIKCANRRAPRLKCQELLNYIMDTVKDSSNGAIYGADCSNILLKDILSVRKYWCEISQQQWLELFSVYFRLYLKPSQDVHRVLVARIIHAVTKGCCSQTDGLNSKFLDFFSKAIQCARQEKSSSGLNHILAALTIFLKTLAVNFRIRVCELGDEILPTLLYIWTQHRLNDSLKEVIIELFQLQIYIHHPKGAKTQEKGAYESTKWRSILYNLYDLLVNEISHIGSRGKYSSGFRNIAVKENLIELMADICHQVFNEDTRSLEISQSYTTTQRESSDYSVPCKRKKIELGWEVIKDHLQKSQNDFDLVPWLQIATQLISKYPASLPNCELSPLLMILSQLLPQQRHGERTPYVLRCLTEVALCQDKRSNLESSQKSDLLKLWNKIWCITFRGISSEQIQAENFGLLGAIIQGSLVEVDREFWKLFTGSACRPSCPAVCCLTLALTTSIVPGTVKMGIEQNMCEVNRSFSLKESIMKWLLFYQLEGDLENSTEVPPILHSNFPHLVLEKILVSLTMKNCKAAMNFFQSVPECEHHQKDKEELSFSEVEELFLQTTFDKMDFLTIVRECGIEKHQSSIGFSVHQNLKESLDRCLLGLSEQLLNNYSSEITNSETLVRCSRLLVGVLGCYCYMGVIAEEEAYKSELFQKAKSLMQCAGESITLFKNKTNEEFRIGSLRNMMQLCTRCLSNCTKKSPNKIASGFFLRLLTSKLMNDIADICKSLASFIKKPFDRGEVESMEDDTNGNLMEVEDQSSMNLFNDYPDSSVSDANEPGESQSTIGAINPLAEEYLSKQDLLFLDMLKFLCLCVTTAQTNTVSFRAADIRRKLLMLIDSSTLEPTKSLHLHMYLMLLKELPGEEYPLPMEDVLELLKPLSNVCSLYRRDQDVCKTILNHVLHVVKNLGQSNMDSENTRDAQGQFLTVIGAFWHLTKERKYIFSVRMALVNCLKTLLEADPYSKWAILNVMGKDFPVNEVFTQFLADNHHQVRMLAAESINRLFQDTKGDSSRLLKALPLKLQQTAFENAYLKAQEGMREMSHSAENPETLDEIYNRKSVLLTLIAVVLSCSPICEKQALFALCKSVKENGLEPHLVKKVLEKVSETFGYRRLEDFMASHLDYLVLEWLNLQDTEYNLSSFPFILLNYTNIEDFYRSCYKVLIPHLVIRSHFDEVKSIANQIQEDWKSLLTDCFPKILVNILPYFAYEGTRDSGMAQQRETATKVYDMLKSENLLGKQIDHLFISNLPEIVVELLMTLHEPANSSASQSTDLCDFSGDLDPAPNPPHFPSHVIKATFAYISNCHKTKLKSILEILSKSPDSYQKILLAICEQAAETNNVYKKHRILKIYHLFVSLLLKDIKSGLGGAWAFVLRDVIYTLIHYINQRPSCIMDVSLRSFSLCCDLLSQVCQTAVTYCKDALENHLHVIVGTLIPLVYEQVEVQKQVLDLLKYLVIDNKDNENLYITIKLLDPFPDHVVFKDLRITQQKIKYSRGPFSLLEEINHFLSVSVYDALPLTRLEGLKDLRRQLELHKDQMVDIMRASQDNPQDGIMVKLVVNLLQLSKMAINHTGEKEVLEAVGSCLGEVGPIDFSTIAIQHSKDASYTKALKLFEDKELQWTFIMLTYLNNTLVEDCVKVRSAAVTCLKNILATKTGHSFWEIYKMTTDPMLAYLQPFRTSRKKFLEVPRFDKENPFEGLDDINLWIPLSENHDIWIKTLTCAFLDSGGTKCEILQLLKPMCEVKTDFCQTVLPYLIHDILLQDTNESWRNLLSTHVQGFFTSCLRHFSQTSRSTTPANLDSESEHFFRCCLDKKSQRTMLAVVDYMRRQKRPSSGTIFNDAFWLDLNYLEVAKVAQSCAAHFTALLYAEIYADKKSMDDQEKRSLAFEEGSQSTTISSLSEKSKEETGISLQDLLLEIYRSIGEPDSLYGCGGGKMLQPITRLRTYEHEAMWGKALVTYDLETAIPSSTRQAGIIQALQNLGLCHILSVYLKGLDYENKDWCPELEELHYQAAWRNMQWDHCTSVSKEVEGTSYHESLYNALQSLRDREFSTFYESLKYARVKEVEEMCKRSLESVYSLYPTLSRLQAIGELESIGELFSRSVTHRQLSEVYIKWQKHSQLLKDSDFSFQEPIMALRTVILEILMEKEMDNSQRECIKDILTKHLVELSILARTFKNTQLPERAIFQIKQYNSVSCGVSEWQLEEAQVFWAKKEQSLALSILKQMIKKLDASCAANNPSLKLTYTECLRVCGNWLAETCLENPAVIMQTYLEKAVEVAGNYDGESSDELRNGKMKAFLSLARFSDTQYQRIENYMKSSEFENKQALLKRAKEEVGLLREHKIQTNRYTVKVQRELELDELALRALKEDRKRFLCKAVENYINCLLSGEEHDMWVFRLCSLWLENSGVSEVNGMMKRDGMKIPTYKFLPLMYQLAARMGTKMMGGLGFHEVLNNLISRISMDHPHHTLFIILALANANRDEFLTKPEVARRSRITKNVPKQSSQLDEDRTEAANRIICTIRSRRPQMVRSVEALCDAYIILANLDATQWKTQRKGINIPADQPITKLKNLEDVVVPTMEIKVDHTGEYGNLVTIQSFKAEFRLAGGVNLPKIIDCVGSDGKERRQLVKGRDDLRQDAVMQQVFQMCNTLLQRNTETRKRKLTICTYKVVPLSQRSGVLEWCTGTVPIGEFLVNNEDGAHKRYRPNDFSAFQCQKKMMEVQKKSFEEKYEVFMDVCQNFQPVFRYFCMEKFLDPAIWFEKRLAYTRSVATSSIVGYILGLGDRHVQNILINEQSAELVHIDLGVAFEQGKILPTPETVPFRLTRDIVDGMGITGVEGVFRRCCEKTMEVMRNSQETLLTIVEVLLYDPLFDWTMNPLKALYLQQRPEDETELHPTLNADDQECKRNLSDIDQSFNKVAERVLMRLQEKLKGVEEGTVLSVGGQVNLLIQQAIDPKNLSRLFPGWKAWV

Row | SMILES | IC50 (ATM; pKAP1 in etoposide-treated MCF-7 cells) [nM] | IC50 (DNA-PK; 20 μM ATP) [nM] | IC50 (ATM; [1]) [nM] | IC50 (DNA-PK; ATP 20 μM) [nM]
1 | CN(C)CCCOc1ccc(-c2ccc3ncc4c(c3c2)C2(CC2)C(=O)N4C)cn1 [Example 1, 8′-(6-(3-(Dimethylamino)propoxy)pyridin-3-yl)-3′-methylspiro [cyclopropane-1,1′-pyrrolo[2,3-c]quinolin]-2′(3′-H)-one] | – | – | 1 to 100 | 1 to 100
2 | CN(C)CCCOc1ncc(-c2ccc3ncc4c(c3c2)C2(CCCC2)C(=O)N4C)cc1NS(=O)(=O)c1ccccc1 [Example 2, N-(2-(3-(Dimethylamino)propoxy)-5-(3′-methyl-2′-oxo-2′,3′-dihydrospiro[cyelopentane-1,1′-pyrrolo[2,3-c]quinolin]-8′-yl)pyridin-3-yl) benzenesulfonamide] | – | – | 1 to 100 | 1 to 100
3 | CN(C)CCCOc1ncc(-c2ccc3ncc4c(c3c2)C2(CCCCC2)C(=O)N4C)cc1NS(=O)(=O)c1ccccc1 [Example 3, N-(2-(3-(Dimethylamino)propoxy)-5-(3′-methyl-2′-oxo-2′,3′-dihydrospiro[cyclohexane-1,1′-pyrrolo[2,3-c]quinolin]-8′-yl)pyridin-3-yl) benzenesulfonamide] | – | – | 1 to 100 | 1 to 100
4 | CN(C)CCCOc1ncc(-c2ccc3ncc4c(c3c2)C2(CC2)C(=O)N4C)cc1NS(=O)(=O)c1ccccc1 [Example 4, N-(2-(3-(Dimethylamino)propoxy)-5-(3′-methyl-2′-oxo-2′,3′-dihydrospiro[cyclopropane-1,1′-pyrrolo[2,3-c]quinolin]-8′-yl)pyridin-3-yl)benzenesulfonamide] | – | – | < 0.5 | < 0.5
5 | CN(C)CCCOc1ncc(-c2ccc3ncc4c(c3c2)C2(CCC2)C(=O)N4C)cc1NS(=O)(=O)c1ccccc1 [Example 5, N-(2-(3-(Dimethylamino)propoxy)-5-(3′-methyl-2′-oxo-2′,3′-dihydrospiro [cyclobutane-1,1′-pyrrolo [2,3-c]quinolin]-8′-yl)pyridin-3-yl)benzenesulfonamide] | – | – | 1 to 100 | < 0.5
6 | CN(C)CCOc1ncc(-c2ccc3ncc4c(c3c2)C2(CCCC2)C(=O)N4C)cc1NS(=O)(=O)c1ccccc1 [Example 6, N-(2-(2-(Dimethylamino)ethoxy)-5-(3′-methyl-2′-oxo-2′,3′-dihydrospiro[cyclopentane-1,1′-pyrrolo[2,3-c]quinolin]-8′-yl)pyridin-3-yl)benzenesulfonamide] | – | – | 1 to 100 | 0.5 to 1
7 | COc1ncc(-c2ccc3ncc4c(c3c2)C2(COC2)C(=O)N4C)cc1NS(=O)(=O)c1ccccc1 [Example 8, N-(2-Methoxy-5-(3′-methyl-2′-oxo-2′,3′-dihydrospiro[oxetane-3,1′-pyrrolo[2,3-c]quinolin]-8′-yl)pyridin-3-yl)benzenesulfonamide] | – | – | 1 to 100 | < 0.5
8 | COc1ncc(-c2ccc3ncc4c(c3c2)C2(CC2)C(=O)N4C)cc1NS(=O)(=O)c1cccc(Cl)c1 [Example 9, 3-Chloro-N-(2-methoxy-5-(3′-methyl-2′-oxo-2′,3′-dihydrospiro [cyclopropane-1,1′-pyrrolo[2,3-c]quinolin]-8′-yl)pyridin-3-yl)benzenesulfonamide] | – | – | 1 to 100 | < 0.5
9 | CN(C)c1ncc(-c2ccc3ncc4c(c3c2)C2(CCC2)C(=O)N4C)cc1NS(=O)(=O)c1ccccc1 [Example 10, N-(2-(Dimethylamino)-5-(3′-methyl-2′-oxo-2′,3′-dihydrospiro[cyclobutane-1,1′-pyrrolo[2,3-c]quinolin]-8′-yl)pyridin-3-yl)benzenesulfonamide] | – | – | 1 to 100 | < 0.5
10 | COc1ncc(-c2ccc3ncc4c(c3c2)C2(CC2)C(=O)N4C)cc1NS(=O)(=O)c1ccc([N+](=O)[O-])cc1 [Example 12, N-(2-Methoxy-5-(3′-methyl-2′-oxo-2′,3′-dihydrospiro [cyclopropane-1,1′-pyrrolo[2,3-c]quinolin]-8′-yl)pyridin-3-yl)-4-nitrobenzenesulfonamide] | – | – | 1 to 100 | < 0.5
11 | COc1ncc(-c2ccc3ncc4c(c3c2)C2(CC2)C(=O)N4C)cc1NS(=O)(=O)c1cccc(C(C)=O)c1 [Example 13, 3-Acetyl-N-(2-methoxy-5-(3′-methyl-2′-oxo-2′,3′-dihydrospiro [cyclopropane-1,1′-pyrrolo[2,3-c]quinolin]-8′-yl)pyridin-3-yl)benzenesulfonamide] | – | – | 1 to 100 | < 0.5
12 | COc1ncc(-c2ccc3ncc4c(c3c2)C2(CC2)C(=O)N4C)cc1NS(=O)(=O)c1ccccc1 [Example 14, N-(2-Methoxy-5-(3′-methyl-2′-oxo-2′,3′-dihydrospiro [cyclopropane-1,1′-pyrrolo[2,3-c]quinolin]-8′-yl)pyridin-3-yl)benzenesulfonamide] | – | – | 1 to 100 | < 0.5

Next, values leading:

Row | IC50 (ATM; pKAP1 in etoposide-treated MCF-7 cells) [nM] | IC50 (DNA-PK; 20 μM ATP) [nM] | IC50 (ATM; [1]) [nM] | IC50 (DNA-PK; ATP 20 μM) [nM] | SMILES
13 | 1 to 100 | 1 to 100 | – | – | CN1C(=O)C2(CCC2)c2c1cnc1ccc(-c3cnc(N4CCC(N5CCCCC5)C4)c(NS(C)(=O)=O)c3)cc21 (racemic) [Example 352, (rac)-N-(5-(3′-Methyl-2′-oxo-2′,3′-dihydrospiro[cyclobulane-1,1′-pyrrolo[2,3-c]quinolin]-8′-yl)-2-(3-(piperidin-1-yl)pyrrolidin-1-yl)pyridin-3-yl)methanesulfonamide hydrochloride]
14 | – | – | 1 to 100 | < 0.5 | CN1C(=O)C2(CC2)c2c1cnc1ccc(-c3cnc(Cl)c(NS(=O)(=O)c4ccccc4)c3)cc21 [Example 15, N-(2-Chloro-5-(3′-methyl-2′-oxo-2′,3′-dihydrospiro[cyclopropane-1,1′-pyrrolo[2,3-c]quinolin]-8′-yl)pyridin-3-yl)benzenesulfonamide]
15 | – | – | 1 to 100 | < 0.5 | COc1ncc(-c2ccc3ncc4c(c3c2)C2(CC2)C(=O)N4)cc1NS(=O)(=O)c1ccccc1 [Example 19, N-(2-Methoxy-5-(2′-oxo-2′,3′-dihydrospiro [cyclopropane-1,1′-pyrrolo[2,3-c]quinolin]-8′-yl)pyridin-3-yl) benzenesulfonamide]
16 | – | – | 1 to 100 | < 0.5 | COc1ncc(-c2ccc3ncc4c(c3c2)C2(CC2)C(=O)N4CC#N)cc1NS(=O)(=O)c1ccccc1 [Example 21, N-(5-(3′-(Cyanomethyl)-2′-oxo-2′,3′-dihydrospiro[cyclopropane-1,1′-pyrrolo[2,3-c]quinolin]-8′-yl)-2-methoxypyridin-3-yl)benzenesulfonamide]
17 | – | – | 1 to 100 | 1 to 100 | CN1C(=O)C2(CC2)c2c1cnc1ccc(-c3ccc4ncccc4c3)cc21 [Example 22, 3′-Methyl-8′-(quinolin-6-yl)spiro[cyclopropane-1,1′-pyrrolo[2,3-c]quinolin]-2′(3′-H)-one]
18 | – | – | 1 to 100 | < 0.5 | Cc1ncc(-c2ccc3ncc4c(c3c2)C2(CC2)C(=O)N4C)cc1NS(=O)(=O)c1ccccc1 [Example 24, N-(2-Methyl-5-(3′-methyl-2′-oxo-2′,3′-dihydrospiro[cyclopropane-1,1′-pyrrolo[2,3-c]quinolin]-8′-yl)pyridin-3-yl)benzenesulfonamide]
19 | – | – | 1 to 100 | 1 to 100 | CN(C)CCCOc1ncc(-c2ccc3ncc4c(c3c2)C2(CC2)C(=O)N4C)cc1NS(=O)(=O)C1CC1 [Example 29, N-(2-(3-(Dimethylamino)propoxy)-5-(3′-methyl-2′-oxo-2′,3′-dibydrospiro [cyclopropane-1,1′-pyrrolo[2,3-c]quinolin]-8′-yl)pyridin-3-yl) cyclopropanesulfonamide]
20 | – | – | 1 to 100 | 1 to 100 | CN(C)CCCOc1ncc(-c2ccc3ncc4c(c3c2)C2(CC2)C(=O)N4Cc2cn[nH]c2)cc1NS(=O)(=O)c1ccccc1 [Example 30, N-(5-(3′-((1H-Pyrazol-4-yl)methyl)-2′-oxo-2′,3′-dihydrospiro[cyclopropane-1,1′-pyrrolo[2,3-c]quinolin]-8′-yl)-2-(3-(dimethylamino)propoxy)pyridin-3-yl)benzenesulfonamide]
21 | – | – | 1 to 100 | 1 to 100 | CN(C)CCCOc1ncc(-c2ccc3ncc4c(c3c2)C2(COC2)C(=O)N4C)cc1NS(=O)(=O)c1ccccc1 [Example 32, N-(2-(3-(Dimethylamino)propoxy)-5-(3′-methyl-2′-oxo-2′,3′-dihydrospiro[oxetane-3,1′-pyrrolo[2,3-c]quinolin]-8′-yl)pyridin-3-yl)benzenesulfonamide]
